Experimental data taken from patent publication US12077483B2, “Modified amine lipids” (Intellia Therapeutics, Inc., priority 2018, dated 2024).

System: not listed separately
Assay: pKa of amine lipid by TNS fluorescence
Assay type: physicochemical
Details: probe TNS (6-(p-toluidino)-2-naphthalenesulfonic acid sodium salt), unformulated amine lipid in ethanol, sodium phosphate buffers -9.0
Method: The pKa of each amine lipid was determined according to the method in Jayaraman, et al. (Angewandte Chemie, 2012) with the following adaptations. The pKa was determined for unformulated amine lipid in ethanol. Lipid stock solutions (2.94 mM) were diluted into Sodium Phosphate Buffers (0.1 M, Boston Bioproducts) of different pH (pH-range: 4.5-9.0) yielding a final lipid concentration of approx. 100 μM. The test samples were supplemented with TNS {6-(p-Toluidino)-2-naphthalenesulfonic acid sodium salt}, incubated and the fluorescence intensity was measured using excitation and emission wavelengths of 321 nm and 448 nm, respectively. The recorded data were normalized and the respective pKa values were derived from sigmoidal fitting.

Row | Compound | pKa
1 | CCCCC/C=C\C/C=C\CCCCCCCC(=O)OCC(COC(=O)CCCCCCC/C=C\C/C=C\CCCCC)OC(=O)CCCOC(=O)NCCN(C)CC [Compound 43, 2-((4-(((2-(ethyl(methyl)amino)ethyl)carbamoyl)oxy)butanoyl)oxy)propane-1,3-diyl (9Z,9′Z,12Z,12′Z)-bis(octadeca-9,12-dienoate)] | 7.33
2 | CCCCCCCCCCOC(=O)CCCCCCCC(=O)OCC(COC(=O)CCCCCCCC(=O)OCCCCCCCCCC)OC(=O)CCCC(CCCCCCCC)OC(=O)NCCN(C)CC (stereo not drawn) [Compound 58] | 6.32
3 | CCCCCCCC/C=C\CCCCCCCC(=O)OCC(COC(=O)CCCCCCC/C=C\CCCCCCCC)OC(=O)CCC(CCCC)OC(=O)NCCN1CCCC1 (stereo not drawn) [Compound 110, 2-((4-(((2-(pyrrolidin-1-yl)ethyl)carbamoyl)oxy)octanoyl)oxy)propane-1,3-diyl dioleate] | 7.01
4 | CCCCC/C=C\C/C=C\CCCCCCCC(=O)OCC(COC(=O)CCCCCCC/C=C\C/C=C\CCCCC)OC(=O)CCC(CCCCC(C)C)OC(=O)NCCN1CCCC1 (stereo not drawn) [Compound 82, 2-((9-methyl-4-(((2-(pyrrolidin-1-yl)ethyl)carbamoyl)oxy)decanoyl)oxy)propane-1,3-diyl (9Z,9′Z,12Z,12′Z)-bis(octadeca-9,12-dienoate)] | 6.71
5 | CCCCC/C=C\C/C=C\CCCCCCCC(=O)OCC(COC(=O)CCCCCCC/C=C\C/C=C\CCCCC)OC(=O)CCC(CCCCCC)OC(=O)OCCCN1CCCCC1 (stereo not drawn) [Compound 102, 2-((4-(((3-(piperidin-1-yl)propoxy)carbonyl)oxy)decanoyl)oxy)propane-1,3-diyl (9Z,9′Z,12Z,12′Z)-bis(octadeca-9,12-dienoate)] | 5.16
6 | CCCCC/C=C\C/C=C\CCCCCCCC(=O)OCC(COC(=O)CCCCCCC/C=C\CCCCCCCC)OC(=O)CCC(CCCC)OC(=O)NCCN1CCCC1 (stereo not drawn) [Compound 109, 3-(oleoyloxy)-2-((4-(((2-(pyrrolidin-1-yl)ethyl)carbamoyl)oxy)octanoyl)oxy)propyl (9Z,12Z)-octadeca-9,12-dienoate] | 6.91
7 | CCCCC/C=C\C/C=C\CCCCCCCC(=O)OCC(COC(=O)CCCCCCC/C=C\C/C=C\CCCCC)COC(=O)CC(CCCC)OC(=O)NCCN1CCCC1 (stereo not drawn) [Compound 113, 2-(((3-(((2-(pyrrolidin-1-yl)ethyl)carbamoyl)oxy)heptanoyl)oxy)methyl)propane-1,3-diyl (9Z,9′Z,12Z,12′Z)-bis(octadeca-9,12-dienoate)] | 7.02
8 | CCCCC/C=C\C/C=C\CCCCCCCC(=O)OCC(COC(=O)CCCCCCC/C=C\C/C=C\CCCCC)OC(=O)CCC(CCCCCC(C)C)OC(=O)NCCN1CCCC1 (stereo not drawn) [Compound 83, 2-((10-methyl-4-(((2-(pyrrolidin-1-yl)ethyl)carbamoyl)oxy)undecanoyl)oxy)propane-1,3-diyl (9Z,9′Z,12Z,12′Z)-bis(octadeca-9,12-dienoate)] | 6.61
9 | CCCCC/C=C\C/C=C\CCCCCCCC(=O)OCC(COC(=O)CCCCCCC/C=C\C/C=C\CCCCC)COC(=O)CCC(CCCC)OC(=O)NCCN1CCCC1 (stereo not drawn) [Compound 112, 2-(((4-(((2-(pyrrolidin-1l-yl)ethyl)carbamoyl)oxy)octanoyl)oxy)methyl)propane-1,3-diyl (9Z,9′Z,12Z,12′Z)-bis(octadeca-9,12-dienoate)] | 7.02
10 | CCCCC/C=C\C/C=C\CCCCCCCC(=O)OCC(COC(=O)CCCCCCC/C=C\C/C=C\CCCCC)OC(=O)CCC(CCCCCCCC)OC(=O)N(C)CCN(C)CC (stereo not drawn) [Compound 37, 2-((4-(((2-(ethyl(methyl)amino)ethyl)(methyl)carbamoyl)oxy)dodecanoyl)oxy) propane-1,3-diyl (9Z,9′Z,12Z,12′Z)-bis(octadeca-9,12-dienoate)] | 5.36
11 | CCCCC/C=C\C/C=C\CCCCCCCC(=O)OCC(COC(=O)CCC(CCCC)OC(=O)NCCN1CCCC1)OC(=O)CCCCCCC/C=C\C/C=C\CCCCC (stereo not drawn) [Compound 111, 3-((4-(((2-(pyrrolidin-1-yl)ethyl)carbamoyl)oxy)octanoyl)oxy)propane-1,2-diyl (9Z,9′Z,12Z,12′Z)-bis(octadeca-9,12-dienoate)] | 7.02
12 | CCCCCCCCCCOC(=O)CCCCCCCC(=O)OCC(COC(=O)CCCCCCCC(=O)OCCCCCCCCCC)OC(=O)CC(CCCCCCCC)OC(=O)NCCN(C)CC (stereo not drawn) [Compound 56, 9,9′-didecyl O′1,O1-(2-((3-(((2-(ethyl(methyl)amino)ethyl)carbamoyl)oxy)undecanoyl)oxy)propane-1,3-diyl) di(nonanedioate)] | 6.28
13 | CCCCC/C=C\C/C=C\CCCCCCCC(=O)OCC(COC(=O)CCCCCCC/C=C\C/C=C\CCCCC)OC(=O)CCC(CCCCCC)OC(=O)OCCCN1CCC1 (stereo not drawn) [Compound 101, 2-((4-(((3-(azetidin-1-yl)propoxy)carbonyl)oxy)decanoyl)oxy)propane-1,3-diyl (9Z,9′Z,12Z,12′Z)-bis(octadeca-9,12-dienoate)] | 6.75
14 | CCCCC/C=C\C/C=C\CCCCCCCC(=O)OCC(COC(=O)CCCCCCC/C=C\C/C=C\CCCCC)OC(=O)CCC(CCCCCCCCCCCC)OC(=O)OCCN(C)C (stereo not drawn) [Compound 4, 2-((4-(((2-(dimethylamino)ethoxy)carbonyl)oxy)hexadecanoyl)oxy)propane-1,3-diyl (9Z,9′Z,12Z,12′Z)-bis(octadeca-9,12-dienoate)] | < 5
15 | CCCCC/C=C\C/C=C\CCCCCCCC(=O)OCC(COC(=O)CCCCCCC/C=C\C/C=C\CCCCC)OC(=O)CCC(CCCCCCCCCCCC)OC(=O)OCCCN(CC)CC (stereo not drawn) [Compound 2, 2-((4-(((3-(diethylamino)propoxy)carbonyl)oxy)hexadecanoyl)oxy)propane-1,3-diyl (9Z,9′Z,12Z,12′Z)-bis(octadeca-9,12-dienoate)] | 5.28
16 | CCCCC/C=C\C/C=C\CCCCCCCC(=O)OCC(COC(=O)CCCCCCC/C=C\C/C=C\CCCCC)COC(=O)C(C)(C)C(CCCCCCCC)OC(=O)NCCN(C)CC (stereo not drawn) [Compound 99, 2-(4,4,11-trimethyl-5-octyl-3,7-dioxo-2,6-dioxa-8,11-diazatridecyl)propane-1,3-diyl (9Z,9′Z,12Z,12′Z)-bis(octadeca-9,12-dienoate)] | 5.96
17 | CCCCC/C=C\C/C=C\CCCCCCCC(=O)OCC(COC(=O)CCCCCCC/C=C\C/C=C\CCCCC)OC(=O)CCC(CCCCCCCCCCCC)OC(=O)NCCCN(CC)CC (stereo not drawn) [Compound 13, 2-((4-(((3-(diethylamino)propyl)carbamoyl)oxy)hexadecanoyl)oxy)propane-1,3-diyl (9Z,9′Z,12Z,12′Z)-bis(octadeca-9,12-dienoate)] | 7.2
18 | CCCCC/C=C\C/C=C\CCCCCCCC(=O)OCC(COC(=O)CCCCCCC/C=C\C/C=C\CCCCC)OC(=O)CCC(CCCCCCCCCCCC)OC(=O)OC1CCN(C)CC1 (stereo not drawn) [f47] | 5.99
19 | CCCCC/C=C\C/C=C\CCCCCCCC(=O)OCC(COC(=O)CCCCCCC/C=C\C/C=C\CCCCC)OC(=O)CCC(CCCCC(C)C)OC(=O)NCCN(C)CC (stereo not drawn) [Compound 80, 2-((4-(((2-(ethyl(methyl)amino)ethyl)carbamoyl)oxy)-9-methyldecanoyl)oxy)propane-1,3-diyl (9Z,9′Z,12Z,12′Z)-bis(octadeca-9,12-dienoate)] | 6.41
20 | CCCCC/C=C\C/C=C\CCCCCCCC(=O)OCC(COC(=O)CCCCCCC/C=C\C/C=C\CCCCC)OC(=O)CCC(CCCCCC(C)C)OC(=O)NCCN(C)CC (stereo not drawn) [Compound 81, 2-((4-(((2-(ethyl(methyl)amino)ethyl)carbamoyl)oxy)-10-methylundecanoyl)oxy)propane-1,3-diyl (9Z,9′Z,12Z,12′Z)-bis(octadeca-9,12-dienoate)] | 6.42

System: mouse TTR
Assay: Serum TTR ELISA in mice after LNP delivery
Assay type: in vivo
Details: mouse serum, relative to TSS control of same experiment, dose 0.03 mpk
Method: For studies measuring in vivo editing in liver, CD-1 female mice were dosed at 0.1 mpk unless otherwise noted. Animals were euthanized at 6 or 7 days by exsanguinationvia cardiac puncture under isoflourane anesthesia. Liver tissue was collected from each animal for DNA extraction and analysis. Blood was collected into serum separator tubes or into tubes containing buffered sodium citrate for plasma as described herein. Cohorts of mice were measured for editing by Next-Generation Sequencing (NGS).
Blood was collected and the serum was isolated as indicated. The total mouse TTR serum levels were determined using a Mouse Prealbumin (Transthyretin) ELISA Kit (Aviva Systems Biology, Cat. OKIA00111). Briefly, sera were serial diluted with kit sample diluent, e.g. to a final dilution of 10,000-fold and/or 2,500-fold. The diluted sample was then added to the ELISA plates and the assay was then carried out according to directions. Serum TTR data from treatment groups are expressed as a percentage of vehicle control levels.

Row | Compound | Serum TTR % TSS [% TSS]
21 | CCCCC/C=C\C/C=C\CCCCCCCC(=O)OCC(COC(=O)CCCCCCC/C=C\C/C=C\CCCCC)OC(=O)CCC(CCCCCCCCCCCC)OC(=O)OCCN(C)C (stereo not drawn) [Compound 4, 2-((4-(((2-(dimethylamino)ethoxy)carbonyl)oxy)hexadecanoyl)oxy)propane-1,3-diyl (9Z,9′Z,12Z,12′Z)-bis(octadeca-9,12-dienoate)] | 73.09
22 | CCCCC/C=C\C/C=C\CCCCCCCC(=O)OCC(COC(=O)CCCCCCC/C=C\C/C=C\CCCCC)COC(=O)C(C)(C)C(CCCCCCCC)OC(=O)NCCN(C)CC (stereo not drawn) [Compound 99, 2-(4,4,11-trimethyl-5-octyl-3,7-dioxo-2,6-dioxa-8,11-diazatridecyl)propane-1,3-diyl (9Z,9′Z,12Z,12′Z)-bis(octadeca-9,12-dienoate)] | 92.42

Same assay, conditions: mouse serum, relative to TSS control of same experiment, dose 0.1 mpk

Row | Compound | Serum TTR % TSS [% TSS]
23 | CCCCCCCCCCOC(=O)CCCCCCCC(=O)OCC(COC(=O)CCCCCCCC(=O)OCCCCCCCCCC)OC(=O)CC(CCCCCCCC)OC(=O)NCCN(C)CC (stereo not drawn) [Compound 56, 9,9′-didecyl O′1,O1-(2-((3-(((2-(ethyl(methyl)amino)ethyl)carbamoyl)oxy)undecanoyl)oxy)propane-1,3-diyl) di(nonanedioate)] | 69.70
24 | CCCCC/C=C\C/C=C\CCCCCCCC(=O)OCC(COC(=O)CCCCCCC/C=C\C/C=C\CCCCC)COC(=O)C(C)(C)C(CCCCCCCC)OC(=O)NCCN(C)CC (stereo not drawn) [Compound 99, 2-(4,4,11-trimethyl-5-octyl-3,7-dioxo-2,6-dioxa-8,11-diazatridecyl)propane-1,3-diyl (9Z,9′Z,12Z,12′Z)-bis(octadeca-9,12-dienoate)] | 42.87
